Experimental data as given in patent EP0878194A1, “REMEDIES OR PREVENTIVES FOR AIDS” (SANKYO COMPANY LIMITED, priority 1996, dated 1997).
Like-named read-outs stand apart in the source and are kept apart here.

How the values were obtained:
[1] = tested on: HIV-1IIIB strain; assay: In vitro combined test: survival of HIV-1IIIB-infected MT4 cells (MTT), isobologram and combination index; assay type: cell-based
[2] = tested on: HIV-1IIIB strain; assay: as above; assay type: cell-based; settings: read-out: IC50 of Preparation example 117
Procedure: Human T cell transformed cell line MT4 cells were cultured in RPMI 1640 medium containing 10% fetal bovine serum. HIV-1IIIB strain was obtained from HIV-1IIIB chronically infected Molt-4 cells as a supernatant fluid and used as the source of infectious viruses. The 50% tissue culture infectious dose (TCID50) of this fluid was determined by the endpoint titration methods.
The compound of Preparation example 117 was added in a serial dilution in the vertical direction to six 96-well microtiter plates. As a result of adding ZDV (Sigma) in a serial dilution in the horizontal direction, diluted solutions containing mixtures of various concentrations were prepared in 96-well microtiter plates (n=4).
MT4 cells were exposed to HIV-1IIIB fluid at a multiplicity of infection (m.o.i) 0.001 TCID50/ml at 37°C for 1 hour, then the cells were washed twice with PBS, and aliquots (5 x 10^4 cells/well) were placed in the plates containing various concentration of agent prepared as described above. After incubation for 6 days, the survival rate of infected MT4 cells was determined by the cell survival test using MTT (Sigma). Incidentally, in this test, the absorbance at O.D. 540 nm was measured by a plate reader, and the survival rate was determined by drawing a cell survival curve.
Analysis was performed according to the method of Barenbaum using an isobologram and combination index (CI) (Barenbaum, M.C., Pharmacol. Rev., 41, 93-141, 1989). In this case, the CI value was calculated by the general isobole equation. Determination of synergy, addition and […] was performed by isobologram curve patterns and/or statistical comparison of experimental CI values with CI values in typical additive effects (CI values when identical compounds are used in combination (0.85±0.11, Taylor, D.L. et al., Antiviral Chem. Chemother., 6, 143-152, 1995)).

In the case of Nc1ccn([C@@H]2CS[C@H](CO)O2)c(=O)n1 [3TC, 4-amino-1-(2-hydroxymethyl-1,3-oxathioran-5-yl)-(1H)-pyrimidin-2-one, reference compound], the IC50 ([1]; Human immunodeficiency virus 1, MT4, alone (Preparation example 117 0), Table 33 experiment, read-out: IC50 of 3TC) is reported as 0.6 µg/mL, the IC50 ([1]; Human immunodeficiency virus 1, MT4, with Preparation example 117 0.38 ng/ml, read-out: IC50 of 3TC) is reported as 0.5 µg/mL and the IC50 ([1]; Human immunodeficiency virus 1, MT4, with Preparation example 117 0.78 ng/ml, read-out: IC50 of 3TC) is reported as 0.52 µg/mL. For the same molecule, the IC50 ([1]; Human immunodeficiency virus 1, MT4, with Preparation example 117 0.96 ng/ml, read-out: IC50 of 3TC) was 0.5 µg/mL, the IC50 ([1]; Human immunodeficiency virus 1, MT4, with Preparation example 117 1.56 ng/ml, read-out: IC50 of 3TC) was 0.43 µg/mL and the IC50 ([1]; Human immunodeficiency virus 1, MT4, with Preparation example 117 3.13 ng/ml, read-out: IC50 of 3TC) was 0.34 µg/mL. For the same molecule, the IC50 ([1]; Human immunodeficiency virus 1, MT4, with Preparation example 117 4.57 ng/ml, read-out: IC50 of 3TC) was 0.25 µg/mL, the IC50 ([1]; Human immunodeficiency virus 1, MT4, with Preparation example 117 6.25 ng/ml, read-out: IC50 of 3TC) was 0.19 µg/mL and the IC50 ([1]; Human immunodeficiency virus 1, MT4, with Preparation example 117 8.0 ng/ml, read-out: IC50 of 3TC) was 0.125 µg/mL. For the same molecule, the IC50 ([1]; Human immunodeficiency virus 1, MT4, with Preparation example 117 12.4 ng/ml, read-out: IC50 of 3TC) was 0.063 µg/mL, the IC50 ([1]; Human immunodeficiency virus 1, MT4, with Preparation example 117 12.7 ng/ml, read-out: IC50 of 3TC) was 0.0313 µg/mL and the IC50 ([1]; Human immunodeficiency virus 1, MT4, with Preparation example 117 13.0 ng/ml, read-out: IC50 of 3TC) was 0.0156 µg/mL.
Cn1cc(C(=O)O)c(=O)c2cc(F)c(N3CCN(c4ncccn4)CC3)c(C(F)(F)F)c21 [Preparation example 117, 6-fluoro-8-trifluoromethyl-1,4-dihydro-4-oxo-1-methyl-7-[4-(2-pyrimidinyl)piperazin-1-yl]quinoline-3-carboxylic acid] was tested, and the IC50 ([1]; Human immunodeficiency virus 1, MT4, alone (3TC 0), Table 33 experiment, read-out: IC50 of Preparation example 117) was 0.016 µg/mL, the IC50 ([1]; Human immunodeficiency virus 1, MT4, alone (DDI 0), Table 34 experiment, read-out: IC50 of Preparation example 117) was 0.014 µg/mL and the IC50 ([1]; Human immunodeficiency virus 1, MT4, alone (ZDV 0), Table 32 experiment, read-out: IC50 of Preparation example 117) was 0.039 µg/mL. The IC50 ([1]; Human immunodeficiency virus 1, MT4, with 3TC 0.0156 µg/ml, read-out: IC50 of Preparation example 117) was 0.013 µg/mL, the IC50 ([1]; Human immunodeficiency virus 1, MT4, with 3TC 0.0313 µg/ml, read-out: IC50 of Preparation example 117) was 0.0127 µg/mL and the IC50 ([1]; Human immunodeficiency virus 1, MT4, with 3TC 0.063 µg/ml, read-out: IC50 of Preparation example 117) was 0.0124 µg/mL. For the same molecule, the IC50 ([1]; Human immunodeficiency virus 1, MT4, with 3TC 0.125 µg/ml, read-out: IC50 of Preparation example 117) was 0.008 µg/mL, the IC50 ([1]; Human immunodeficiency virus 1, MT4, with 3TC 0.19 µg/ml, read-out: IC50 of Preparation example 117) was 0.00625 µg/mL and the IC50 ([1]; Human immunodeficiency virus 1, MT4, with 3TC 0.25 µg/ml, read-out: IC50 of Preparation example 117) was 0.00457 µg/mL. For the same molecule, the IC50 ([1]; Human immunodeficiency virus 1, MT4, with 3TC 0.34 µg/ml, read-out: IC50 of Preparation example 117) was 0.00313 µg/mL, the IC50 ([1]; Human immunodeficiency virus 1, MT4, with 3TC 0.43 µg/ml, read-out: IC50 of Preparation example 117) was 0.00156 µg/mL and the IC50 ([1]; Human immunodeficiency virus 1, MT4, with 3TC 0.50 µg/ml (Table 33, first line with 0.50), read-out: IC50 of Preparation example 117) was 0.00096 µg/mL. The IC50 ([1]; Human immunodeficiency virus 1, MT4, with 3TC 0.50 µg/ml (Table 33, second line with 0.50), read-out: IC50 of Preparation example 117) was 0.00038 µg/mL, the IC50 ([1]; Human immunodeficiency virus 1, MT4, with 3TC 0.52 µg/ml, read-out: IC50 of Preparation example 117) was 0.00078 µg/mL and the IC50 ([1]; Human immunodeficiency virus 1, MT4, with DDI 0.156 µM, read-out: IC50 of Preparation example 117) was 0.011 µg/mL. For the same molecule, the IC50 ([1]; Human immunodeficiency virus 1, MT4, with DDI 0.313 µM, read-out: IC50 of Preparation example 117) was 0.0105 µg/mL, the IC50 ([1]; Human immunodeficiency virus 1, MT4, with DDI 0.63 µM, read-out: IC50 of Preparation example 117) was 0.01 µg/mL and the IC50 ([1]; Human immunodeficiency virus 1, MT4, with DDI 1.25 µM, read-out: IC50 of Preparation example 117) was 0.0077 µg/mL. It also gave an IC50 ([1]; Human immunodeficiency virus 1, MT4, with DDI 1.67 µM, read-out: IC50 of Preparation example 117) of 0.00625 µg/mL, an IC50 ([1]; Human immunodeficiency virus 1, MT4, with DDI 2.50 µM, read-out: IC50 of Preparation example 117) of 0.00385 µg/mL and an IC50 ([1]; Human immunodeficiency virus 1, MT4, with DDI 2.80 µM, read-out: IC50 of Preparation example 117) of 0.00313 µg/mL. It also gave an IC50 ([1]; Human immunodeficiency virus 1, MT4, with DDI 3.65 µM, read-out: IC50 of Preparation example 117) of 0.00156 µg/mL, an IC50 ([1]; Human immunodeficiency virus 1, MT4, with DDI 4.27 µM, read-out: IC50 of Preparation example 117) of 0.00039 µg/mL and an IC50 ([1]; Human immunodeficiency virus 1, MT4, with DDI 4.38 µM, read-out: IC50 of Preparation example 117) of 0.00078 µg/mL. For the same molecule, the IC50 ([1]; Human immunodeficiency virus 1, MT4, with ZDV 0.78 ng/ml, read-out: IC50 of Preparation example 117) was 0.028 µg/mL, the IC50 ([1]; Human immunodeficiency virus 1, MT4, with ZDV 1.20 ng/ml, read-out: IC50 of Preparation example 117) was 0.025 µg/mL and the IC50 ([1]; Human immunodeficiency virus 1, MT4, with ZDV 3.13 ng/ml, read-out: IC50 of Preparation example 117) was 0.0162 µg/mL. It also gave an IC50 ([1]; Human immunodeficiency virus 1, MT4, with ZDV 5.60 ng/ml, read-out: IC50 of Preparation example 117) of 0.0125 µg/mL, an IC50 ([1]; Human immunodeficiency virus 1, MT4, with ZDV 12.5 ng/ml, read-out: IC50 of Preparation example 117) of 0.0053 µg/mL and an IC50 ([1]; Human immunodeficiency virus 1, MT4, with ZDV 14.5 ng/ml, read-out: IC50 of Preparation example 117) of 0.00156 µg/mL. It also gave an IC50 ([2]; Human immunodeficiency virus 1, MT4, with ZDV 1.56 ng/ml) of 0.0241 µg/mL, an IC50 ([2]; Human immunodeficiency virus 1, MT4, with ZDV 6.25 ng/ml) of 0.0111 µg/mL and an IC50 ([2]; Human immunodeficiency virus 1, MT4, with ZDV 11.6 ng/ml) of 0.00625 µg/mL. It also gave an IC50 ([2]; Human immunodeficiency virus 1, MT4, with ZDV 13.9 ng/ml) of 0.00313 µg/mL.
OC[C@@H]1CC[C@H](n2cnc3c(O)ncnc32)O1 [DDI, 2',3'-dideoxyinosine, reference compound] was tested, and the IC50 ([1]; Human immunodeficiency virus 1, MT4, alone (Preparation example 117 0), Table 34 experiment, read-out: IC50 of DDI) was 5.4 µM, the IC50 ([1]; Human immunodeficiency virus 1, MT4, with Preparation example 117 0.39 ng/ml, read-out: IC50 of DDI) was 4.27 µM and the IC50 ([1]; Human immunodeficiency virus 1, MT4, with Preparation example 117 0.78 ng/ml, read-out: IC50 of DDI) was 4.38 µM. It also gave an IC50 ([1]; Human immunodeficiency virus 1, MT4, with Preparation example 117 1.56 ng/ml, read-out: IC50 of DDI) of 3.65 µM, an IC50 ([1]; Human immunodeficiency virus 1, MT4, with Preparation example 117 3.13 ng/ml, read-out: IC50 of DDI) of 2.8 µM and an IC50 ([1]; Human immunodeficiency virus 1, MT4, with Preparation example 117 3.85 ng/ml, read-out: IC50 of DDI) of 2.5 µM. The IC50 ([1]; Human immunodeficiency virus 1, MT4, with Preparation example 117 6.25 ng/ml, read-out: IC50 of DDI) was 1.67 µM, the IC50 ([1]; Human immunodeficiency virus 1, MT4, with Preparation example 117 7.70 ng/ml, read-out: IC50 of DDI) was 1.25 µM and the IC50 ([1]; Human immunodeficiency virus 1, MT4, with Preparation example 117 10.0 ng/ml, read-out: IC50 of DDI) was 0.63 µM. The IC50 ([1]; Human immunodeficiency virus 1, MT4, with Preparation example 117 10.5 ng/ml, read-out: IC50 of DDI) was 0.313 µM and the IC50 ([1]; Human immunodeficiency virus 1, MT4, with Preparation example 117 11.0 ng/ml, read-out: IC50 of DDI) was 0.156 µM.
